{"source": "patent US7863287B2", "about": "“Compositions of non-steroidal anti-inflammatory drugs, decongestants and anti-histamines” (Wyeth LLC, priority 2002, dated 2011)", "system": "seasonal allergic rhinitis", "experiment": "Multicenter, placebo-controlled, double-blind, randomized multiple-dose efficacy trial in seasonal allergic rhinitis", "assay_type": "in vivo, human", "note": "Structures can show the parent of a compound that is named as a salt.", "excerpt": "The study was a multicenter, outpatient, multiple-dose, placebo controlled, double-blind, double-dummy, parallel-group, randomized trial.\nThe study enrolled 1070 appropriately selected patients who were at least 12 years of age and included both males and females. […] Qualified subjects were required to undergo a 3-30 day run-in phase to establish that the patients had sufficiently severe allergy symptoms, during which time they reflectively assessed the severity of the following symptoms in the morning (upon waking) and in the evening (prior to bedtime): nasal congestion, sneezing, rhinorrhea, itchy nose/throat/palate; itchy/watery/red eyes and headache/facial pain/pressure/discomfort. The severity of each symptom was assessed using a 4-point categorical scale where 0=none (no symptom present), 1=mild (minimal awareness of symptom, symptom easily tolerated), 2=moderate (symptom present and bothersome, but tolerable) and 3=severe (symptom hard to tolerate; may cause interference with daily activities/sleeping). […] Patients were also assessed for allergy associated pain and were asked if they were in pain. […]"}
{"smiles": "CN(C)CCC(c1ccc(Cl)cc1)c1ccccn1", "note": "(stereo not shown) [chlorpheniramine, chlorpheniramine maleate]", "values": [{"measurement": "relief of histamine-mediated symptoms, result in words", "result": "more effective than the placebo"}]}
